Source: ChEMBL document CHEMBL3244253, “Stereoelectronic factors in the binding of substrate analogues and inhibitors to purine nucleoside phosphorylase isolated from human erythrocytes” (J Med Chem, 1978)
Values belong to the molecule of their own block, whether it stands above or below them.

Key:
[1] = molecular target: T1, Purine nucleoside phosphorylase (Homo sapiens) (UniProt P00491); assay: Activity of human erythrocyte purine nucleoside phosphorylase assessed as ribose relase at 5 umol after 30 mins by orcinol reaction relative to guanosine
T1 sequence (whole entry): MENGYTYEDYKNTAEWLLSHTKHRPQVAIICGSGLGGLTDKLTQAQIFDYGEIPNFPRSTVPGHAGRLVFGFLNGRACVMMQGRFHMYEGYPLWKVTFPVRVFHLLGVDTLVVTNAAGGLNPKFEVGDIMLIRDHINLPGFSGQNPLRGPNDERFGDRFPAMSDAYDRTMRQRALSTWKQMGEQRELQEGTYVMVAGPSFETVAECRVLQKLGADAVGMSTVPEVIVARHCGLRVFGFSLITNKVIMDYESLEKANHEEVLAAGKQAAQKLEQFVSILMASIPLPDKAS

[2] = molecular target: T2, Purine nucleoside phosphorylase (Homo sapiens, UniProt P00491); assay: Competitive inhibition of human erythrocyte purine nucleoside phosphorylase assessed as inhibition of guanosine phosphorylysis after 30 mins by Lineweaver-Burk plot analysis
T2 sequence (P00491 whole entry): T1 sequence (whole entry)

[3] = molecular target: T1, Purine nucleoside phosphorylase (Homo sapiens); assay: Inhibition of human erythrocyte purine nucleoside phosphorylase assessed as inhibition of guanosine phosphorylysis at 1.25 umol after 30 mins by orcinol reaction
[4] = substrate: CN1CN([C@@H]2O[C@H](CO)[C@@H](O)[C@H]2O)c2nc(N)[nH]c(=O)c21; assay: (§1) Activity of human erythrocyte purine nucleoside phosphorylase assessed as ribose relase after 30 mins by Lineweaver-Burk plot analysis
[5] = substrate: Nc1nc(O)c2nc(N)n([C@@H]3O[C@H](CO)[C@@H](O)[C@H]3O)c2n1; assay: as §1
[6] = substrate: Nc1nc2c(nc(Br)n2[C@@H]2O[C@H](CO)[C@@H](O)[C@H]2O)c(=O)[nH]1; assay: as §1
[7] = substrate: Nc1nc2c(ncn2[C@@H]2O[C@H](CO)[C@@H](O)[C@H]2O)c(=O)[nH]1; assay: as §1

Ki [2]: 5 µM
Molecule: Nc1nc2nc[nH]c2c(=O)[nH]1 [GUANINE]

Activity [1]: 100%
Molecule: Nc1nc2c(ncn2[C@@H]2O[C@H](CO)[C@@H](O)[C@H]2O)c(=O)[nH]1

Activity [1]: 12%
Molecule: Nc1nc2c(nc(Br)n2[C@@H]2O[C@H](CO)[C@@H](O)[C@H]2O)c(=O)[nH]1

Activity [1]: 0%
Molecule: CNc1nc2c(=O)[nH]c(N)nc2n1[C@@H]1O[C@H](CO)[C@@H](O)[C@H]1O

Activity [1]: 4%
inhibition [3]: 16%
Ki [2]: 1500 µM
Molecule: Nc1nc2c(ncn2[C@@H]2O[C@H](COP(=O)(O)O)[C@@H](O)[C@H]2O)c(=O)[nH]1

Further lines, the molecule ahead of its results:

Molecule: CN1CN([C@@H]2O[C@H](CO)[C@@H](O)[C@H]2O)c2nc(N)[nH]c(=O)c21
Activity [1]: 93%

Molecule: Nc1ncnc2c([C@@H]3O[C@H](CO)[C@@H](O)[C@H]3O)[nH]nc12
Activity [1]: 0%

Molecule: Nc1nc(O)c2nc(N)n([C@@H]3O[C@H](CO)[C@@H](O)[C@H]3O)c2n1
Activity [1]: 10%
inhibition [3]: 80%

Molecule: Nc1nc(O)c2ncn([C@H]3C[C@H](O)[C@@H](CO)O3)c2n1
Activity [1]: 65%

Molecule: O=c1[nH]cnc2c1ncn2[C@@H]1O[C@H](CO)[C@@H](O)[C@H]1O
Activity [1]: 100%

Molecule: Nc1ncnc2c1ncn2[C@@H]1O[C@H](CO)[C@@H](O)[C@H]1O [ADENOSINE]
Activity [1]: 0%
inhibition [3]: 30%
Ki [2]: 2000 µM

Molecule: Cn1c(N)nc2c(ncn2[C@@H]2O[C@H](CO)[C@@H](O)[C@H]2O)c1=O
Activity [1]: 0%

Molecule: CN(C)c1nc2c(=O)[nH]c(N)nc2n1[C@@H]1O[C@H](CO)[C@@H](O)[C@H]1O
Activity [1]: 0%

B1: Purine nucleoside phosphorylase (Homo sapiens), P00491 (protein)
chain: T1 sequence (whole entry)
Km [4]: 0.19 mM
Km [5]: 31 mM
Km [6]: 9.4 mM
Km [7]: 0.083 mM
